According to PubChem BioAssay AID2060488 (Molecular Pharmacology Branch, DTP, NCI, 2025):

Tested on: 966289-007-R4-J1-PDC complex spheroid viability
Assay: Anticancer human tumor 966289-007-R4-J1-PDC patient-derived pancreatic adenocarcinoma cell line growth inhibition [GQUAD]
Details: for IC50: curve of first compound; for viability, T/C: stronger effect = lower value; active = viability on the fitted dose curve at most 10% of control; inactive = the rest
How it was run: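 Multi-cell-type spheroids of tumor cells with HUVEC and mesenchymal stem cells, treated with drug combinations. Concentrations descend in half-log steps from near clinical Cmax, or from 10 microM where Cmax is unknown; viability read-out.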

[1] = second compound 0.0316 µM, first compound 0.0316 µM
[2] = second compound 0.0316 µM, first compound 0.1 µM
[3] = second compound 0.0316 µM, first compound 0.316 µM
[4] = second compound 0.0316 µM, first compound 1 µM
[5] = second compound 0.0316 µM, first compound 3.16 µM
[6] = second compound 0.0316 µM, first compound 10 µM
[7] = second compound 0.1 µM, first compound 0.0316 µM
[8] = second compound 0.1 µM, first compound 0.1 µM
[9] = second compound 0.1 µM, first compound 0.316 µM
[10] = second compound 0.1 µM, first compound 1 µM
[11] = second compound 0.1 µM, first compound 3.16 µM
[12] = second compound 0.1 µM, first compound 10 µM
[13] = second compound 0.316 µM, first compound 0.0316 µM
[14] = second compound 0.316 µM, first compound 0.1 µM
[15] = second compound 0.316 µM, first compound 0.316 µM
[16] = second compound 0.316 µM, first compound 1 µM
[17] = second compound 0.316 µM, first compound 3.16 µM
[18] = second compound 0.316 µM, first compound 10 µM
[19] = second compound 1 µM, first compound 0.0316 µM
[20] = second compound 1 µM, first compound 0.1 µM
[21] = second compound 1 µM, first compound 0.316 µM
[22] = second compound 1 µM, first compound 1 µM
[23] = second compound 1 µM, first compound 3.16 µM
[24] = second compound 1 µM, first compound 10 µM
[25] = second compound 3.16 µM, first compound 0.0316 µM
[26] = second compound 3.16 µM, first compound 0.1 µM
[27] = second compound 3.16 µM, first compound 0.316 µM
[28] = second compound 3.16 µM, first compound 1 µM
[29] = second compound 3.16 µM, first compound 3.16 µM
[30] = second compound 3.16 µM, first compound 10 µM
[31] = second compound 10 µM, first compound 0.0316 µM
[32] = second compound 10 µM, first compound 0.1 µM
[33] = second compound 10 µM, first compound 0.316 µM
[34] = second compound 10 µM, first compound 1 µM
[35] = second compound 10 µM, first compound 3.16 µM
[36] = second compound 10 µM, first compound 10 µM
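Also: spheroids exposed to the agents for seven days before readout.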
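For viability, T/C in this document: percent viability relative to DMSO vehicle control wells taken as 100%.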

CC1COCCN1c1cc(C2(S(C)(=N)=O)CC2)nc(-c2ccnc3[nH]ccc23)n1 (stereo not drawn) + CN(C)c1ccc(Nc2c3ccc(NC(=O)CCN4CCCC4)cc3nc3cc(NC(=O)CCN4CCCC4)ccc23)cc1
4.36 µM: IC50 (second compound 0.1 µM)
4.42 µM: IC50 (second compound 1 µM)
4.25 µM: IC50 (second compound 0.316 µM)
inactive: viability, T/C [1] 106% | viability, T/C [2] 102% | viability, T/C [3] 102% | viability, T/C [4] 101% | viability, T/C [5] 69.8% | viability, T/C [6] 12.3% | viability, T/C [7] 100% | viability, T/C [8] 101% | viability, T/C [9] 102% | viability, T/C [10] 105% | viability, T/C [11] 64.7% | viability, T/C [12] 12.1% | viability, T/C [13] 99.8% | viability, T/C [14] 102% | viability, T/C [15] 104% | viability, T/C [16] 99.8% | viability, T/C [17] 62.6% | viability, T/C [18] 12.8% | viability, T/C [19] 89.5% | viability, T/C [20] 97% | viability, T/C [21] 104% | viability, T/C [22] 103% | viability, T/C [23] 65.5% | viability, T/C [24] 12.3% | viability, T/C [25] 99.8% | viability, T/C [26] 100% | viability, T/C [27] 106% | viability, T/C [28] 104% | viability, T/C [29] 58.8% | viability, T/C [30] 12.4% | viability, T/C [31] 104% | viability, T/C [32] 101% | viability, T/C [33] 101% | viability, T/C [34] 94% | viability, T/C [35] 20.9%
active: viability, T/C [36] 4.7%
2 µM: IC50 (second compound 10 µM)
3.93 µM: IC50 (second compound 3.16 µM)
4.69 µM: IC50 (second compound 0.0316 µM)

Cc1[nH]c2ccccc2c1CCNCc1ccc(/C=C/C(=O)NO)cc1 + Cc1cnc(CNC(=O)c2c(=O)c3ccc(N4CCCN(C)CC4)nc3n3c2sc2ccccc23)cn1
inactive: viability, T/C (second compound 0.0316 µM, first compound 0.000999 µM) 120% | viability, T/C (second compound 0.0316 µM, first compound 0.00316 µM) 109% | viability, T/C (second compound 0.0316 µM, first compound 0.00999 µM) 110% | viability, T/C [1] 72% | viability, T/C (second compound 0.1 µM, first compound 0.000999 µM) 36.1% | viability, T/C (second compound 0.1 µM, first compound 0.00316 µM) 41.1% | viability, T/C (second compound 0.1 µM, first compound 0.00999 µM) 39.4% | viability, T/C [7] 20.3% | viability, T/C (second compound 0.316 µM, first compound 0.000999 µM) 10.3%
active: viability, T/C (second compound 0.0316 µM, first compound 0.0999 µM) 7.63% | viability, T/C [3] 2.65% | viability, T/C (second compound 0.1 µM, first compound 0.0999 µM) 5.43% | viability, T/C [9] 2.01% | viability, T/C (second compound 0.316 µM, first compound 0.00316 µM) 10.7% | viability, T/C (second compound 0.316 µM, first compound 0.00999 µM) 9.3% | viability, T/C [13] 5.04% | viability, T/C (second compound 0.316 µM, first compound 0.0999 µM) 2.95% | viability, T/C [15] 1.25% | viability, T/C (second compound 1 µM, first compound 0.000999 µM) 7.03% | viability, T/C (second compound 1 µM, first compound 0.00316 µM) 5.38% | viability, T/C (second compound 1 µM, first compound 0.00999 µM) 5.15% | viability, T/C [19] 3.16% | viability, T/C (second compound 1 µM, first compound 0.0999 µM) 1.45% | viability, T/C [21] 0.33% | viability, T/C (second compound 3.16 µM, first compound 0.000999 µM) 3.98% | viability, T/C (second compound 3.16 µM, first compound 0.00316 µM) 4.39% | viability, T/C (second compound 3.16 µM, first compound 0.00999 µM) 3.78% | viability, T/C [25] 0.2% | viability, T/C (second compound 3.16 µM, first compound 0.0999 µM) 0.08% | viability, T/C [27] 0.8% | viability, T/C (second compound 10 µM, first compound 0.000999 µM) 0.11% | viability, T/C (second compound 10 µM, first compound 0.00316 µM) 0.57% | viability, T/C (second compound 10 µM, first compound 0.00999 µM) 0.17% | viability, T/C [31] 0.39% | viability, T/C (second compound 10 µM, first compound 0.0999 µM) 0.16% | viability, T/C [33] 0.17%
< 0.000999 µM: IC50 (second compound 0.1 µM) | IC50 (second compound 0.316 µM) | IC50 (second compound 1 µM) | IC50 (second compound 3.16 µM) | IC50 (second compound 10 µM)
0.0469 µM: IC50 (second compound 0.0316 µM)

Cc1cccc(N(C)C(=O)C2C(O)CCN2c2nc(C)cc(C(F)(F)F)c2C#N)c1 (stereo not drawn) + Cc1[nH]c2ccc(F)cc2c1-c1nc2c3cccnc3c3ncccc3c2[nH]1
> 10 µM: IC50 (second compound 0.0316 µM) | IC50 (second compound 0.1 µM) | IC50 (second compound 0.316 µM) | IC50 (second compound 1 µM) | IC50 (second compound 3.16 µM) | IC50 (second compound 10 µM)
inactive: viability, T/C [1] 109% | viability, T/C [2] 90.5% | viability, T/C [3] 108% | viability, T/C [4] 90.6% | viability, T/C [5] 106% | viability, T/C [6] 104% | viability, T/C [7] 109% | viability, T/C [8] 98.6% | viability, T/C [9] 97.2% | viability, T/C [10] 101% | viability, T/C [11] 106% | viability, T/C [12] 103% | viability, T/C [13] 97.6% | viability, T/C [14] 104% | viability, T/C [15] 98.1% | viability, T/C [16] 104% | viability, T/C [17] 99.7% | viability, T/C [18] 106% | viability, T/C [19] 102% | viability, T/C [20] 96.8% | viability, T/C [21] 98.7% | viability, T/C [22] 106% | viability, T/C [23] 97.2% | viability, T/C [24] 110% | viability, T/C [25] 104% | viability, T/C [26] 104% | viability, T/C [27] 110% | viability, T/C [28] 107% | viability, T/C [29] 113% | viability, T/C [30] 114% | viability, T/C [31] 107% | viability, T/C [32] 102% | viability, T/C [33] 110% | viability, T/C [34] 104% | viability, T/C [35] 103% | viability, T/C [36] 113%

CC1COCCN1c1cc(-c2ccnn2C)c2ccnc(-c3ccn[nH]3)c2n1 (stereo not drawn) + Cc1cnc(CNC(=O)c2c(=O)c3ccc(N4CCCN(C)CC4)nc3n3c2sc2ccccc23)cn1
< 0.0316 µM: IC50 (second compound 0.0316 µM) | IC50 (second compound 0.1 µM) | IC50 (second compound 0.316 µM) | IC50 (second compound 1 µM) | IC50 (second compound 3.16 µM) | IC50 (second compound 10 µM)
active: viability, T/C [2] 6.05% | viability, T/C [3] 4.12% | viability, T/C [4] 4.23% | viability, T/C [5] 3.36% | viability, T/C [6] 2.9% | viability, T/C [7] 6.63% | viability, T/C [8] 3.84% | viability, T/C [9] 4.03% | viability, T/C [10] 4.94% | viability, T/C [11] 3.73% | viability, T/C [12] 3.29% | viability, T/C [13] 7.42% | viability, T/C [14] 5.9% | viability, T/C [15] 5.46% | viability, T/C [16] 5.36% | viability, T/C [17] 3.91% | viability, T/C [18] 3.35% | viability, T/C [19] 5.44% | viability, T/C [20] 5.41% | viability, T/C [21] 6.4% | viability, T/C [22] 6.38% | viability, T/C [23] 5.26% | viability, T/C [24] 3.91% | viability, T/C [25] 3.88% | viability, T/C [26] 3.62% | viability, T/C [27] 4.85% | viability, T/C [28] 5.21% | viability, T/C [29] 6.21% | viability, T/C [30] 4.16% | viability, T/C [31] 0.03% | viability, T/C [32] 0.07% | viability, T/C [33] 0.1% | viability, T/C [34] 0.08% | viability, T/C [35] 0.11% | viability, T/C [36] 0.15%
inactive: viability, T/C [1] 24.3%
